According to ChEMBL document CHEMBL1201862, “PubChem BioAssay data set” (2004):
The source made the active and inactive calls.

Tests used:
[1] = intracellular Trypanosoma cruzi inhibitors in host cells – cell-based, plate reader, cherry-pick samples, set 3, dose response (AID 651818); format: functional;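 further: compounds incubated with infected cells for about four days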
[2] = non-specific 3'UTR reporter inhibition in Clone20-Shn3RL – cell-based, Renilla luciferase, cherry-picked, counter-screen for Shn3 inhibitor project, dose response (AID 624133); format: functional
[3] = loss of viability in HepG2 cells – cell-based, CellTiter-Glo, cherry-picked, cytotoxicity control for Shn3 inhibitor project, dose response (AID 624134); format: functional
[4] = reduction of Shn3 3'UTR-driven luciferase in osteoblasts – cell-based, Clone20 osteoblasts, firefly luciferase, cherry-picked, dose response (AID 624132); format: functional;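 further: firefly luciferase luminescence from reporter carrying the Shn3 3'UTR in osteoblasts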
[5] = biological target: T1, High affinity choline transporter 1 (Homo sapiens, UniProt Q9GZV3); test: human choline transporter blockers, potency – cell-based, 5-point CRC, membrane potential dye, dose response (AID 504840); format: functional
T1 sequence (Q9GZV3 whole entry): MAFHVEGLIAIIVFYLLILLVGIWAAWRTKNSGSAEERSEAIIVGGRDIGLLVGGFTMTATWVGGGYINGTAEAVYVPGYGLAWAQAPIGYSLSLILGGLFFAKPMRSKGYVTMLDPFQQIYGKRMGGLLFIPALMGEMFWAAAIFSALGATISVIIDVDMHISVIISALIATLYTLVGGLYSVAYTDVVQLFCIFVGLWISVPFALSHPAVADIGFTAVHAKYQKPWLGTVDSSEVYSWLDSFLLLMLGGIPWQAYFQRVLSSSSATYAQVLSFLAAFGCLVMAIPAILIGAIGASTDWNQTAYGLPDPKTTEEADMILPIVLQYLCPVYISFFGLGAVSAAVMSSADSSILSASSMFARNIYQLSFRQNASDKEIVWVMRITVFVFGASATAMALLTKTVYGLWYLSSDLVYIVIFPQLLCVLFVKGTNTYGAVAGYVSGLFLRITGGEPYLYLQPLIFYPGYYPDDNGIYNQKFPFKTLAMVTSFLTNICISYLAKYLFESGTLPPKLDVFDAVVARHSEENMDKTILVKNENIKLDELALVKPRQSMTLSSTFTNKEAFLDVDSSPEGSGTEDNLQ

[6] = biological target: Genome polyprotein (dengue virus type 2, UniProt P29990); test: flavivirus cap methylation enzyme inhibition – biochemical, confirmation dose response, primary screen (AID 588689); format: functional
[7] = biological target: T2, Fatty acid synthase (Homo sapiens, UniProt P49327); test: inhibition of human FAS-TE enzyme activity – biochemical, endpoint fluorescence intensity, uHTS hits, dose response (AID 624327); format: functional;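 further: fluorescence from hydrolysis of an O-methyl fluorescein acyl ester substrate by the enzyme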
[8] = biological target: T2, Fatty acid synthase; test: inhibition of human FAS-TE enzyme activity – biochemical, kinetic fluorescence intensity, dose response (AID 624326); format: functional;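 further: rate of fluorescence rise from hydrolysis of a fluorogenic O-methyl fluorescein ester substrate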
[9] = biological target: T3, Estrogen receptor (Homo sapiens, UniProt P03372);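 further: potency for inhibiting coactivator peptide recruitment to the receptor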
T3 sequence (P03372 whole entry): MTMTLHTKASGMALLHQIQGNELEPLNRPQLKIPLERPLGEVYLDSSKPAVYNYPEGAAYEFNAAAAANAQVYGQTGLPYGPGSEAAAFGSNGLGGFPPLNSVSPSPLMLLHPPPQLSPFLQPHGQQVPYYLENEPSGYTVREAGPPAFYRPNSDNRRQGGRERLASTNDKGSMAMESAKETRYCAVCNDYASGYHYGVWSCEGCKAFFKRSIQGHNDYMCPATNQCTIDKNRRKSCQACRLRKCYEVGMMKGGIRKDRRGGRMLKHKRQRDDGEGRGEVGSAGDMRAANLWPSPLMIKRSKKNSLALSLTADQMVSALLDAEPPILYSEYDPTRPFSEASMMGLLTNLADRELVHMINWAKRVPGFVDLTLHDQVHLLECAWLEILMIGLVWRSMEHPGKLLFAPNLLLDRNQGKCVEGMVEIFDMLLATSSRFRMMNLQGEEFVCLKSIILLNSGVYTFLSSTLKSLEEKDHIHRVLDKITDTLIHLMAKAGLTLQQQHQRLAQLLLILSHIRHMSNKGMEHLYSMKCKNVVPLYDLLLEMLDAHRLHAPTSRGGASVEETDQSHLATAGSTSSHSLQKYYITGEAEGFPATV

[10] = alpha-synuclein stem-loop luciferase translation blockers – H4 neuroglioma cells, luminescence, confirmation (AID 1988); format: functional, cell-based
[11] = biological target: Large T antigen (Simian virus 40, UniProt P03070); format: functional, Betapolyomavirus macacae;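 further: Confirmatory-stage PubChem screen for compounds that inhibit SV40 T antigen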
[12] = luciferase reporter signal suppression in cells – H4 neuroglioma cells, luminescence, dose response (AID 1990); format: functional, cell-based
[13] = biological target: Induced myeloid leukemia cell differentiation protein Mcl-1 (Homo sapiens, UniProt Q07820); format: functional
[14] = Luminescence Cell-Based Dose Response HTS to Identify Inhibitors of 5'UTR Stem-Loop Driven Prion Protein mRNA Translation in H4 Neuroglioblastoma Cells. [Related pubchem assays: 1827 (Project Summary), 1813 (Primary HTS)]; format: functional
[15] = tested on: INS1; test: INS-1E survival protection against cytokine death – cell-based, luminescence, retest, dose response (AID 449756); format: functional; conditions: Rattus norvegicus;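 further: cell death triggered by IL-1 beta plus TNF-alpha plus IFN-gamma mixture; protective hits raise ATP signal compared with cytokine alone wells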
[16] = biological target: Heat shock protein HSP 90-alpha (Homo sapiens, UniProt P07900); format: functional, organism-based
[17] = biological target: T4, Heat shock factor protein 1 (Mus musculus, UniProt P38532); test: enhancement of HSF1-driven luciferase signal – cell-based, NIH3T3, luminescence, dose retest, confirmation (AID 435004); format: functional;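 further: stress induced by proteasome inhibitor MG132 added 30 min after compound; luciferase reporter driven by HSF1 response element in NIH3T3 cells; actives raise luminescence as potentiators of the MG132 stress response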
T4 sequence (P38532 whole entry): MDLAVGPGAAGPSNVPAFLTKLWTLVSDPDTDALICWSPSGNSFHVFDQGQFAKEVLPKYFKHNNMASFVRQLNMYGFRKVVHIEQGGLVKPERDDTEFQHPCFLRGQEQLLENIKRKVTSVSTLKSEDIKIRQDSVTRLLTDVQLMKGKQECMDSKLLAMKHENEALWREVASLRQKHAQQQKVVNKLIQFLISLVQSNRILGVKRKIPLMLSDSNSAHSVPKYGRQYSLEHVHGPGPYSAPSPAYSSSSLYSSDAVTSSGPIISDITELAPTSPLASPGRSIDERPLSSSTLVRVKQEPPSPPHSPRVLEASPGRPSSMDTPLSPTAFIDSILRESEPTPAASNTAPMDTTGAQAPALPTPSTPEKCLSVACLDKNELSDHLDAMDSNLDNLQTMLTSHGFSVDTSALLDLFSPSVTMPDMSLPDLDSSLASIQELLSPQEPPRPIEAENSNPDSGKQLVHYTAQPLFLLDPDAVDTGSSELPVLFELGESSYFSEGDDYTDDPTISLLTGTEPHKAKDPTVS

Genome polyprotein, sequence (P29990 2492-3391 limits assumed): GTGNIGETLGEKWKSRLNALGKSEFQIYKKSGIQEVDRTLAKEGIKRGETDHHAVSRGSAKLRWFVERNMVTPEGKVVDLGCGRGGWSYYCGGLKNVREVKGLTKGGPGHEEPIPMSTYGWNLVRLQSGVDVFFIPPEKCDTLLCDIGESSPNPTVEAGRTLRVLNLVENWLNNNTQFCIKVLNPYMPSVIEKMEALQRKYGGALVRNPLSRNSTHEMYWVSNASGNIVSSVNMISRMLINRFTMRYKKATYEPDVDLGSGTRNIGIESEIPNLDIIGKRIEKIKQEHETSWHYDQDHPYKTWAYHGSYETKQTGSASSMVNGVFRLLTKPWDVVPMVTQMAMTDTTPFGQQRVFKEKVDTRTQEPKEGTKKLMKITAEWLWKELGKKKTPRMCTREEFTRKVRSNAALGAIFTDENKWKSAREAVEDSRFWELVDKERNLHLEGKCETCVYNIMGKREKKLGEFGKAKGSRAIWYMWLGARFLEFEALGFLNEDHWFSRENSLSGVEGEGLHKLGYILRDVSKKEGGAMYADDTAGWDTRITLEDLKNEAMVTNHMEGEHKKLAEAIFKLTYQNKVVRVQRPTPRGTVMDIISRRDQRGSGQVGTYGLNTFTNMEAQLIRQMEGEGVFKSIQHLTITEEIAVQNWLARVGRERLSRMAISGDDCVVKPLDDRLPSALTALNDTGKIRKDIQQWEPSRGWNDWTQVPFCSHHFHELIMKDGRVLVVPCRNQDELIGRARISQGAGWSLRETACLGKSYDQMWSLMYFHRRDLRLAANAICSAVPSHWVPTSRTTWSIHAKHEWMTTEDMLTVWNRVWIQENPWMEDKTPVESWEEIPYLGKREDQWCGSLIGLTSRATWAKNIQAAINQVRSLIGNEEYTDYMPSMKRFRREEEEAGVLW
T2 sequence (P49327 whole entry): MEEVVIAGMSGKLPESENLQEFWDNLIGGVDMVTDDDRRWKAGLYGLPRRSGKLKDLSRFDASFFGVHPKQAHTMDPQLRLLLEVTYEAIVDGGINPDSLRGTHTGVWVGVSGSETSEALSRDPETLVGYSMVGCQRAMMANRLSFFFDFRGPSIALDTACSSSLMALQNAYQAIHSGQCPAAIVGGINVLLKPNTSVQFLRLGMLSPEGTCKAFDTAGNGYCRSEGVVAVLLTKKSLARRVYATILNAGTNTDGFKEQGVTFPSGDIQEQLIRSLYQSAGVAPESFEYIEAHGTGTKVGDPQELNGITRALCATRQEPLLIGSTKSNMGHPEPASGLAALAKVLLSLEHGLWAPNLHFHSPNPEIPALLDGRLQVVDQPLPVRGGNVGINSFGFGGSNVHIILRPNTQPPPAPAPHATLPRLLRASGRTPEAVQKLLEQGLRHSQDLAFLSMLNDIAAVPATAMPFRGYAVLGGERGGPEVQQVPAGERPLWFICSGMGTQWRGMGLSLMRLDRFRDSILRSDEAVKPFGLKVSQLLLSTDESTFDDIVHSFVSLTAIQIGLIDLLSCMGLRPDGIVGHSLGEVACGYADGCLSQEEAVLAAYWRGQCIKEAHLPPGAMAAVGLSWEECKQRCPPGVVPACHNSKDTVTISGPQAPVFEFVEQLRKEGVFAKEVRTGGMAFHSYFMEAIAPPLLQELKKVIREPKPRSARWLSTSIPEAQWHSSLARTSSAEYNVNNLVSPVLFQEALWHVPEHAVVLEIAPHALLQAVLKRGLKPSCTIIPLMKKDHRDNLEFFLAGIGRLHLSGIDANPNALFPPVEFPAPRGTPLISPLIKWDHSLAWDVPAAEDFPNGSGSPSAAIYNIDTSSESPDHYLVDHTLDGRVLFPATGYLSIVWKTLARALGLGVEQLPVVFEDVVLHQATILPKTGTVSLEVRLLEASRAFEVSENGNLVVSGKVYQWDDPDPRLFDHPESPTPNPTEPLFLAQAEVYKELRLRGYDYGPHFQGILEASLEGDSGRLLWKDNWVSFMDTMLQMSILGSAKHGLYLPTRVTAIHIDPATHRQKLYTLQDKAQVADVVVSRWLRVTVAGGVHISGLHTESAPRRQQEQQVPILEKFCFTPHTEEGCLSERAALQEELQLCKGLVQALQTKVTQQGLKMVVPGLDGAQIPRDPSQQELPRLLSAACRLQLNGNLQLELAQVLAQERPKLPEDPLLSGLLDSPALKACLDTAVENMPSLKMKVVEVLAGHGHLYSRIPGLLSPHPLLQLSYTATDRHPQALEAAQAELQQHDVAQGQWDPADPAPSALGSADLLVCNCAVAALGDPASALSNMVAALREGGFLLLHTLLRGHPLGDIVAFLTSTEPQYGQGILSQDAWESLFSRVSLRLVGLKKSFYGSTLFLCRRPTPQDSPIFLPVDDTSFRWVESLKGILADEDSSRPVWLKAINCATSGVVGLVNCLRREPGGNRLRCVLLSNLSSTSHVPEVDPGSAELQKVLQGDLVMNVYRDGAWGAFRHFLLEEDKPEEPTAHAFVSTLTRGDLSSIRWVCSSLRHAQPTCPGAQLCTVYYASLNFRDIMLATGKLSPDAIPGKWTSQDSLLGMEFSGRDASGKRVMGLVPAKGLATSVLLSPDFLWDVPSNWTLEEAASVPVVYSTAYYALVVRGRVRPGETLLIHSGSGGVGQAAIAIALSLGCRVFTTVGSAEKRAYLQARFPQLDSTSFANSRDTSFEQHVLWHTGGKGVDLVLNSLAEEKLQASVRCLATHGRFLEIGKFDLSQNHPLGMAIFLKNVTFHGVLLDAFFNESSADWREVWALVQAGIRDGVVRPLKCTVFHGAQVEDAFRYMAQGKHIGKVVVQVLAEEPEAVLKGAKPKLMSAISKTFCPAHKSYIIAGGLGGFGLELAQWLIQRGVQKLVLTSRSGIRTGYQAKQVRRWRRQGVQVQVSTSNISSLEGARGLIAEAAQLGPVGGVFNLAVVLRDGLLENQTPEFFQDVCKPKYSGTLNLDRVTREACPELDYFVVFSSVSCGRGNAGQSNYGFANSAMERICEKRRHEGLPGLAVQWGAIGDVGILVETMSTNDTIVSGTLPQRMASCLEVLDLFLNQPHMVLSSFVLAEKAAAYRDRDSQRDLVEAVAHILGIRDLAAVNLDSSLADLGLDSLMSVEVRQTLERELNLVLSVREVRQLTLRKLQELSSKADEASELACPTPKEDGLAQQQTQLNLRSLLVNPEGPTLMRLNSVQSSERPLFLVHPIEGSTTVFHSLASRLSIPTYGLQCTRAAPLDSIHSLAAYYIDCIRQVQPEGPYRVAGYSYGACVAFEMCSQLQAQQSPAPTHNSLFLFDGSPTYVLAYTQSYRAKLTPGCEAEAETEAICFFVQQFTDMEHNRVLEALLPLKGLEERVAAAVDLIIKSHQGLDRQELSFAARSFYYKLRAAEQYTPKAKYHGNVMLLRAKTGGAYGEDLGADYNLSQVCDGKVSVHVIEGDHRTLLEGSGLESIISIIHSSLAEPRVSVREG
Large T antigen, sequence (P03070 whole entry): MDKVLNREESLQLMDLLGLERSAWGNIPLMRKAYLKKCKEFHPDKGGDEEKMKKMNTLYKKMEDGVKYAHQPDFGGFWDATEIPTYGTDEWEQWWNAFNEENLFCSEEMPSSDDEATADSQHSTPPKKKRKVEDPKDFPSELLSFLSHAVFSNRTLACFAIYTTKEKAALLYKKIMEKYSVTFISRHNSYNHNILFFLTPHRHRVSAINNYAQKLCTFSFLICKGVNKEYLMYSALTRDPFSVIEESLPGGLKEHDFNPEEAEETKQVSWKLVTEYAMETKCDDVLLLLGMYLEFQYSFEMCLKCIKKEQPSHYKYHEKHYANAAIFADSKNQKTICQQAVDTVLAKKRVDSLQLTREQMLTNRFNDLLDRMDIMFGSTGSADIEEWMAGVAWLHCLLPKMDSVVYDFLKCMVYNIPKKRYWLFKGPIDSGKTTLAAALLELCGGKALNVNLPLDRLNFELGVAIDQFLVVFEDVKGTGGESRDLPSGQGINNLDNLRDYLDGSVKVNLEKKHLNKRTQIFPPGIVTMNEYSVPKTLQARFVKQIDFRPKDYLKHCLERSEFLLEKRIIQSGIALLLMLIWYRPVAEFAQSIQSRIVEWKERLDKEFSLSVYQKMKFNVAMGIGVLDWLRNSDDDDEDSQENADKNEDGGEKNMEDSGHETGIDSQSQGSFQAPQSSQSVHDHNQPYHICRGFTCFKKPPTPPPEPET
Induced myeloid leukemia cell differentiation protein Mcl-1, sequence (Q07820 whole entry): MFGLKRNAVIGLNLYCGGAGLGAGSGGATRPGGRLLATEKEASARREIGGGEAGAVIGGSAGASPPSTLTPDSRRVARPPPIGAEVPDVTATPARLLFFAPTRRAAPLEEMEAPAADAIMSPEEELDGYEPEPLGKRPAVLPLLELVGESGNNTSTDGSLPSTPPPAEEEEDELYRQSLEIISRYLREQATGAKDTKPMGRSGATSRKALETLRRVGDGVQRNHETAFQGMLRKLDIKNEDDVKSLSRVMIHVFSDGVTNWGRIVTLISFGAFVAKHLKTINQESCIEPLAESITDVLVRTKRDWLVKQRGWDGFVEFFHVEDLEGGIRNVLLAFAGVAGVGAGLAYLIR

C[C@H](CO)N1C[C@H](C)[C@@H](CN(C)Cc2ccc(-c3ccccc3)cc2)Oc2c(NC(=O)c3ccncc3)cccc2C1=O
AC50 [1]: 0.08 µM (active)

Cc1cccc(C)c1NC(=O)CN(C)C(=O)c1cccc(S(=O)(=O)N2CCN(c3ccc(F)cc3)CC2)c1
AC50 [2]: 13 µM (active) | AC50 [3]: > 70 µM (inactive) | AC50 [4]: 2.2 µM (active)

Cc1cc([N+](=O)[O-])c(NCCCCCCO)c([N+](=O)[O-])c1
IC50 [5]: 12.6 µM (active)

COc1ccc(-c2nnn(CC(=O)Nc3ccc4c(c3)OCCO4)n2)cc1OC
AC50 [2]: 21.2 µM (active) | AC50 [3]: > 70 µM (inactive)

Cc1[nH]n(-c2ccccc2)c(=O)c1N=Nc1ccccc1C(=O)O
IC50 [6]: 58 µM (active)

C[C@@H]1CN([C@H](C)CO)C(=O)Cc2cc(NS(=O)(=O)c3ccc(Cl)cc3)ccc2O[C@@H]1CN(C)Cc1ccc(-c2ccccc2)cc1
AC50 [1]: 2.76 µM (active)

COc1cccc(C2CC(c3ccc(C)cc3)=NN2C(=O)c2ccccc2F)c1OC (stereo not drawn)
AC50 [2]: 30.4 µM (active) | AC50 [4]: 36 µM (active)

O=c1oc(-c2ccccc2F)nc2scc(-c3ccccc3)c12
IC50 [7]: 1.19 µM (active) | IC50 [8]: 0.638 µM (active)

COCCCNC(=O)c1ccc2c(=O)n(Cc3ccc4c(c3)OCO4)c(=S)[nH]c2c1
IC50 [9]: 42 µM (not active)

CCCCSc1nnc2c(n1)[nH]c1ccccc12
IC50 [9]: > 50 µM (not active)

O[C@H]1C[C@H](c2ccc(Cl)cc2)N(CC2CCCCC2)C[C@@H]1n1cc(C2CC2)nn1
IC50 [7]: 12 µM (active) | IC50 [8]: 13.1 µM (active)

COc1ccc(S(=O)(=O)N(C)C[C@H]2Oc3ccc(NC(=O)Nc4cccc5ccccc45)cc3C(=O)N([C@@H](C)CO)C[C@H]2C)cc1
AC50 [1]: 4.38 µM (active)

C[C@@H]1CCCCO[C@@H](CN(C)Cc2ccc(C(=O)Nc3ccccc3N)cc2)[C@@H](C)CN([C@H](C)CO)C(=O)c2cc(NS(=O)(=O)c3ccc(Cl)cc3)ccc2O1
AC50 [1]: 3.39 µM (active)

Cc1ccc(-n2nnnc2SCC(=O)Nc2cccc(NC(=O)c3ccco3)c2)cc1C
IC50 [9]: 14.9 µM (active)

C=CCOC(=O)C1=C(C)N=c2s/c(=C3\C(=O)N(CC(=O)O)c4ccccc43)c(=O)n2C1c1ccc(OC)cc1 (stereo not drawn)
IC50 [6]: 59.4 µM (active) | EC50 [10]: 74 µM (active) | IC50 [11]: 49.1 µM (active) | EC50 [12]: > 120 µM (not active) | IC50 [13]: 3 µM (active) | EC50 [14]: > 120 µM (not active)

CCn1c(SCC(=O)Nc2ccc(NC(=O)c3ccco3)c(OC)c2)nc2ccccc2c1=O
IC50 [9]: 35.8 µM (not active)

O=S(=O)(c1ccc(Cl)cc1)N1CCN(c2ncnc3sccc23)CC1
AC50 [2]: 5.25 µM (active) | AC50 [15]: 5.44 µM (active) | AC50 [3]: 32.2 µM (active) | AC50 [4]: 3.04 µM (active)

CSc1nc(O)c(C(c2ccc(O)cc2)c2c(O)nc(SC)nc2O)c(O)n1
IC50 [6]: 46.7 µM (active)

O=C(Cn1c(=O)n(Cc2ccco2)c(=O)c2c3c(sc21)CCCCC3)c1ccccc1
IC50 [9]: > 50 µM (not active)

C[C@@H]1CN([C@@H](C)CO)C(=O)c2cccc(NC(=O)c3nc4ccccc4s3)c2O[C@@H]1CN(C)Cc1ccccc1
AC50 [1]: 4.84 µM (active)

F[B-](F)(F)c1cc2cc(Br)ccc2s1
AC50 [16]: 4.02 µM (active)

CC(C)CCNc1nc(N)c([N+](=O)[O-])c(N2CCCCCC2)n1
AC50 [2]: 5.43 µM (active) | AC50 [3]: 47.5 µM (active) | AC50 [4]: 8.79 µM (active)

CC(C)COc1ccc(C(=O)N/C(=C/c2cccc([N+](=O)[O-])c2)C(=O)O)cc1
IC50 [7]: 14.2 µM (active) | IC50 [8]: 9.3 µM (active)

CCOc1ccc(C(c2c(O)n(C)c(SC)nc2=O)c2c(O)n(C)c(SC)nc2=O)cc1
IC50 [6]: 43 µM (active)

COc1ccc(NS(=O)(=O)c2ccc(C(=O)N3CCCCCC3)cc2)cc1
AC50 [2]: 9.07 µM (active) | AC50 [3]: 48.4 µM (active) | AC50 [4]: 4.51 µM (active)

C[C@@H]1CN([C@H](C)CO)C(=O)Cc2cc(NC(=O)Nc3ccc4c(c3)OCO4)ccc2O[C@H]1CN(C)CC1CCCCC1
AC50 [1]: 7 µM (active)

COc1ccccc1NS(=O)(=O)c1cc(C(=O)N2CC(C)CC(C)C2)ccc1C (stereo not drawn)
AC50 [16]: 5.54 µM (active) | EC50 [17]: > 260 µM (inactive)

COc1ccc(CNC(=O)c2cc(-c3cccs3)on2)cc1
IC50 [9]: 27.7 µM (active)

C[C@@H]1CCCCO[C@@H](CN(C)Cc2ccc(Cl)c(Cl)c2)[C@@H](C)CN([C@H](C)CO)C(=O)c2cc(NC(=O)Cc3ccccc3)ccc2O1
AC50 [1]: 4.04 µM (active)

O=C(/C=C/c1cccc([N+](=O)[O-])c1)NCc1ccc2c(c1)OCO2
IC50 [7]: 2.33 µM (active) | IC50 [8]: 2.72 µM (active)

C[C@@H]1CCCCO[C@H](CN(C)C(=O)Nc2ccc(C(F)(F)F)cc2)[C@@H](C)CN([C@H](C)CO)C(=O)c2cc(NC(=O)CCC(F)(F)F)ccc2O1
AC50 [1]: 3.67 µM (active)

CCC(C)c1ccc(NC(S)=NCc2ccccn2)cc1 (stereo not drawn)
IC50 [5]: 13.2 µM (active)
